Measurements taken from US6525001B1, “Substituted pyrimidine and pyridine herbicides” (Mid-American Commercialization Corporation, priority 1997, dated 2003).

Key:
Type in all cases: in vivo
Design in all cases: key: 0 is no effect; 10 is complete control
[1] = test system: sugar beet (Beta vulgaris); assay: Test B pre-/postemergence
Method in brief: (§1)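 Response scores run from 0, meaning no effect, to 10, meaning complete control, assigned by eye relative to controls twelve to sixteen days after spraying. Treatment was both preemergence on planted seed and postemergence on plants at the 1- to 4-leaf stage.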

[2] = test system: broadleaf signalgrass (Brachiaria decumbens); assay: Test B pre-/postemergence
Method in brief: as §1

[3] = test system: corn (Zea mays); assay: Test B pre-/postemergence
Method in brief: as §1

[4] = test system: pigweed (Amaranthus retroflexus); assay: Test B pre-/postemergence
Method in brief: as §1

[5] = test system: cocklebur (Xanthium strumarium); assay: Test B pre-/postemergence
Method in brief: as §1

[6] = test system: velvetleaf (Abutilon theophrasti); assay: Test B pre-/postemergence
Method in brief: as §1

[7] = test system: rape (Brassica napus); assay: Test B pre-/postemergence
Method in brief: as §1

[8] = test system: momingglory (Ipomoea hederacea); assay: Test B pre-/postemergence
Method in brief: as §1

[9] = test system: wheat (Triticum aestivum); assay: Test B pre-/postemergence
Method in brief: as §1

[10] = test system: bedstraw (Galium aparine); assay: Test B pre-/postemergence
Method in brief: as §1

[11] = test system: giant foxtail (Setaria faberii); assay: Test B pre-/postemergence
Method in brief: as §1

[12] = test system: smallflower flatsedge (Cyperus difformis); assay: Test B flood test
Method in brief: (§2)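 Each value is a visual injury score relative to controls, with 10 meaning complete control and 0 no effect. Evaluation took place twelve to sixteen days after the 2-leaf-stage plants were treated and kept in the greenhouse.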

[13] = test system: bamyardgrass (Echinochloa crus-galli); assay: Test B flood test
Method in brief: as §2

[14] = test system: duck salad (Heteranthera limosa); assay: Test B flood test
Method in brief: as §2

[15] = test system: rice (Oryza sativa); assay: Test B flood test
Method in brief: as §2

[16] = Rate 62 g/ha, Postemergence (flood test)
[17] = Rate 125 g/ha, Postemergence, flood test
[18] = Rate 250 g/ha, Postemergence (flood test species)
[19] = Rate 500 g/ha, Postemergence (flood test species)

Cc1cnc(-c2ccc(C(F)(F)F)cc2)nc1Cn1cnc(C(F)(F)F)c1 [Compound 10]
Plant response rating, Sugarbeets ([1]; Rate 62 g/ha, Postemergence): 8
Sugarbeets plant response rating ([1]; Rate 62 g/ha, Preemergence): 6
Plant response rating, Sugarbeets ([1]; Rate 125 g/ha, Postemergence): 8
Plant response rating, Sugarbeets ([1]; Rate 250 g/ha, Postemergence): 9
Plant response rating, Sugarbeets ([1]; Rate 250 g/ha, Preemergence): 6
Plant response rating, Sugarbeets ([1]; Rate 500 g/ha, Postemergence): 9
Plant response rating, Sugarbeets ([1]; Rate 500 g/ha, Preemergence): 10
Plant response rating, B. signalgrass ([2]; Rate 62 g/ha, Postemergence): 2
B. signalgrass plant response rating ([2]; Rate 62 g/ha, Preemergence): 1
Plant response rating, B. signalgrass ([2]; Rate 125 g/ha, Postemergence): 3
B. signalgrass plant response rating ([2]; Rate 125 g/ha, Preemergence): 1
Plant response rating, B. signalgrass ([2]; Rate 250 g/ha, Postemergence): 3
Plant response rating, B. signalgrass ([2]; Rate 250 g/ha, Preemergence): 2
Plant response rating, B. signalgrass ([2]; Rate 500 g/ha, Postemergence): 3
Plant response rating, B. signalgrass ([2]; Rate 500 g/ha, Preemergence): 4
Plant response rating, Corn ([3]; Rate 62 g/ha, Postemergence): 2
Corn plant response rating ([3]; Rate 62 g/ha, Preemergence): 0
Plant response rating, Corn ([3]; Rate 125 g/ha, Postemergence): 2
Corn plant response rating ([3]; Rate 125 g/ha, Preemergence): 0
Plant response rating, Corn ([3]; Rate 250 g/ha, Postemergence): 3
Plant response rating, Corn ([3]; Rate 250 g/ha, Preemergence): 0
Plant response rating, Corn ([3]; Rate 500 g/ha, Postemergence): 3
Plant response rating, Corn ([3]; Rate 500 g/ha, Preemergence): 1
Plant response rating, Redroot pigweed ([4]; Rate 62 g/ha, Postemergence): 9
Redroot pigweed plant response rating ([4]; Rate 62 g/ha, Preemergence): 3
Plant response rating, Redroot pigweed ([4]; Rate 125 g/ha, Postemergence): 9
Redroot pigweed plant response rating ([4]; Rate 125 g/ha, Preemergence): 6
Plant response rating, Redroot pigweed ([4]; Rate 250 g/ha, Postemergence): 9
Plant response rating, Redroot pigweed ([4]; Rate 250 g/ha, Preemergence): 7
Plant response rating, Redroot pigweed ([4]; Rate 500 g/ha, Postemergence): 9
Plant response rating, Redroot pigweed ([4]; Rate 500 g/ha, Preemergence): 7
Plant response rating, Cocklebur ([5]; Rate 62 g/ha, Postemergence): 6
Plant response rating, Cocklebur ([5]; Rate 125 g/ha, Postemergence): 8
Plant response rating, Cocklebur ([5]; Rate 250 g/ha, Postemergence): 9
Plant response rating, Cocklebur ([5]; Rate 250 g/ha, Preemergence): 1
Plant response rating, Cocklebur ([5]; Rate 500 g/ha, Postemergence): 9
Plant response rating, Cocklebur ([5]; Rate 500 g/ha, Preemergence): 3
Plant response rating, Velvetleaf ([6]; Rate 62 g/ha, Postemergence): 6
Velvetleaf plant response rating ([6]; Rate 62 g/ha, Preemergence): 5
Plant response rating, Velvetleaf ([6]; Rate 125 g/ha, Postemergence): 7
Velvetleaf plant response rating ([6]; Rate 125 g/ha, Preemergence): 7
Plant response rating, Velvetleaf ([6]; Rate 250 g/ha, Postemergence): 8
Plant response rating, Velvetleaf ([6]; Rate 250 g/ha, Preemergence): 8
Plant response rating, Velvetleaf ([6]; Rate 500 g/ha, Postemergence): 9
Plant response rating, Velvetleaf ([6]; Rate 500 g/ha, Preemergence): 8
Plant response rating, Rape ([7]; Rate 62 g/ha, Postemergence): 8
Rape plant response rating ([7]; Rate 62 g/ha, Preemergence): 3
Plant response rating, Rape ([7]; Rate 125 g/ha, Postemergence): 9
Rape plant response rating ([7]; Rate 125 g/ha, Preemergence): 4
Plant response rating, Rape ([7]; Rate 250 g/ha, Postemergence): 9
Plant response rating, Rape ([7]; Rate 250 g/ha, Preemergence): 4
Plant response rating, Rape ([7]; Rate 500 g/ha, Postemergence): 9
Plant response rating, Rape ([7]; Rate 500 g/ha, Preemergence): 7
Plant response rating, Morningglory ([8]; Rate 62 g/ha, Postemergence): 5
Morningglory plant response rating ([8]; Rate 62 g/ha, Preemergence): 2
Plant response rating, Morningglory ([8]; Rate 125 g/ha, Postemergence): 7
Morningglory plant response rating ([8]; Rate 125 g/ha, Preemergence): 3
Plant response rating, Morningglory ([8]; Rate 250 g/ha, Postemergence): 7
Plant response rating, Morningglory ([8]; Rate 250 g/ha, Preemergence): 9
Plant response rating, Morningglory ([8]; Rate 500 g/ha, Postemergence): 9
Plant response rating, Morningglory ([8]; Rate 500 g/ha, Preemergence): 10
Plant response rating, Wheat ([9]; Rate 62 g/ha, Postemergence): 2
Wheat plant response rating ([9]; Rate 62 g/ha, Preemergence): 0
Plant response rating, Wheat ([9]; Rate 125 g/ha, Postemergence): 3
Wheat plant response rating ([9]; Rate 125 g/ha, Preemergence): 0
Plant response rating, Wheat ([9]; Rate 250 g/ha, Postemergence): 3
Plant response rating, Wheat ([9]; Rate 250 g/ha, Preemergence): 0
Plant response rating, Wheat ([9]; Rate 500 g/ha, Postemergence): 3
Plant response rating, Wheat ([9]; Rate 500 g/ha, Preemergence): 1
Plant response rating, Bedstraw ([10]; Rate 62 g/ha, Postemergence): 8
Bedstraw plant response rating ([10]; Rate 62 g/ha, Preemergence): 3
Plant response rating, Bedstraw ([10]; Rate 125 g/ha, Postemergence): 9
Bedstraw plant response rating ([10]; Rate 125 g/ha, Preemergence): 7
Plant response rating, Bedstraw ([10]; Rate 250 g/ha, Postemergence): 10
Plant response rating, Bedstraw ([10]; Rate 250 g/ha, Preemergence): 7
Plant response rating, Bedstraw ([10]; Rate 500 g/ha, Postemergence): 10
Plant response rating, Bedstraw ([10]; Rate 500 g/ha, Preemergence): 10
Plant response rating, Giant foxtail ([11]; Rate 62 g/ha, Postemergence): 2
Giant foxtail plant response rating ([11]; Rate 62 g/ha, Preemergence): 3
Plant response rating, Giant foxtail ([11]; Rate 125 g/ha, Postemergence): 2
Giant foxtail plant response rating ([11]; Rate 125 g/ha, Preemergence): 7
Plant response rating, Giant foxtail ([11]; Rate 250 g/ha, Postemergence): 4
Plant response rating, Giant foxtail ([11]; Rate 250 g/ha, Preemergence): 8
Plant response rating, Giant foxtail ([11]; Rate 500 g/ha, Postemergence): 5
Plant response rating, Giant foxtail ([11]; Rate 500 g/ha, Preemergence): 9
Plant response rating, S. Flatsedge [12, 16]: 6
Plant response rating, S. Flatsedge [12, 17]: 9
Plant response rating, S. Flatsedge [12, 18]: 9
Plant response rating, S. Flatsedge [12, 19]: 9
Plant response rating, Barnyardgrass [13, 16]: 1
Plant response rating, Barnyardgrass [13, 17]: 2
Plant response rating, Barnyardgrass [13, 18]: 3
Plant response rating, Barnyardgrass [13, 19]: 4
Plant response rating, Ducksalad [14, 16]: 1
Plant response rating, Ducksalad [14, 17]: 1
Plant response rating, Ducksalad [14, 18]: 3
Plant response rating, Ducksalad [14, 19]: 5
Plant response rating, Rice [15, 16]: 0
Plant response rating, Rice [15, 17]: 2
Plant response rating, Rice [15, 18]: 2
Plant response rating, Rice [15, 19]: 3
